Several values for one entry are separate records, joined by “and”; a condition that tells them apart may be missing. Equal entries are not always repeated. Inconclusive results and toxic doses are left out. Cut-off read from the data, not from the text of the source: active = T/C of 150% or more; inactive = T/C below 125%.
Tested on: L1210 leukemia ip in BDF1 mice, survival T/C
Experiment: NCI In Vivo Anticancer Drug Screen. Data for tumor model L1210 Leukemia (intraperitoneal) in B6D2F1 (BDF1) mice
Settings: endpoint: mean survival time, higher = longer survival
In short: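 Antitumor effect is assessed in tumor-bearing animals. Survival in the compound arm is compared with a vehicle-dosed control arm and expressed as their quotient.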

[1] = dose: 100.0 mg/kg/injection, schedule: Q01DX009 (ip), vehicle: saline
[2] = dose: 200.0 mg/kg/injection, schedule: Q01DX009 (ip), vehicle: saline
[3] = dose: 50.0 mg/kg/injection, schedule: Q01DX009 (ip), vehicle: saline with Tween-80
[4] = dose: 100.0 mg/kg/injection, schedule: Q01DX009 (ip), vehicle: saline with Tween-80
[5] = dose: 200.0 mg/kg/injection, schedule: Q01DX009 (ip), vehicle: saline with Tween-80
[6] = dose: 100.0 mg/kg/injection, schedule: Q01DX001 (ip), vehicle: saline
[7] = dose: 200.0 mg/kg/injection, schedule: Q01DX001 (ip), vehicle: saline
[8] = dose: 400.0 mg/kg/injection, schedule: Q01DX001 (ip), vehicle: saline
[9] = dose: 100.0 mg/kg/injection, schedule: Q01DX001 (ip), vehicle: carboxymethylcellulose (CMC)
[10] = dose: 400.0 mg/kg/injection, schedule: Q01DX001 (ip), vehicle: carboxymethylcellulose (CMC)

Measured: T/C

CC(=O)NCS(=O)(=O)O
inactive: [1] 104 % of control | [2] 96 % of control

Nc1c(-c2ccccc2)nnn1-c1cccc(Cl)c1
inactive: dose: 25.0 mg/kg/injection, schedule: Q04DX002 (ip), vehicle: gum acacia 95 % of control | dose: 50.0 mg/kg/injection, schedule: Q04DX002 (ip), vehicle: gum acacia 95 % of control | dose: 100.0 mg/kg/injection, schedule: Q04DX002 (ip), vehicle: gum acacia 96 % of control and 98 % of control

CC(=O)Nc1cccc(N)c1
inactive: dose: 25.0 mg/kg/injection, schedule: Q01DX009 (ip), vehicle: saline 95 % of control | dose: 25.0 mg/kg/injection, schedule: Q04DX003 (ip), vehicle: saline 103 % of control | dose: 50.0 mg/kg/injection, schedule: Q01DX009 (ip), vehicle: saline 108 % of control | dose: 50.0 mg/kg/injection, schedule: Q04DX003 (ip), vehicle: saline 97 % of control | [1] 101 % of control | dose: 100.0 mg/kg/injection, schedule: Q04DX002 (ip), vehicle: Klucel (hydroxypropylcellulose) (HPC) 86 % of control | dose: 100.0 mg/kg/injection, schedule: Q04DX003 (ip), vehicle: saline 94 % of control | dose: 200.0 mg/kg/injection, schedule: Q04DX002 (ip), vehicle: Klucel (hydroxypropylcellulose) (HPC) 107 % of control

CCOC(=O)C(O)(C#CC(C)C)C1CCCCC1 (stereo unspecified)
inactive: dose: 100.0 mg/kg/injection, schedule: Q01DX001 (ip), vehicle: other 94 % of control | dose: 200.0 mg/kg/injection, schedule: Q01DX001 (ip), vehicle: other 89 % of control | dose: 400.0 mg/kg/injection, schedule: Q01DX001 (ip), vehicle: other 94 % of control

Nc1c(F)c(F)c(N)c(F)c1F
inactive: dose: 100.0 mg/kg/injection, schedule: Q01DX001 (ip), vehicle: acetone 93 % of control | dose: 400.0 mg/kg/injection, schedule: Q01DX001 (ip), vehicle: acetone 89 % of control

CCOC(=S)c1ccc(S(=O)(=O)NCc2ccccc2)cc1
inactive: dose: 100.0 mg/kg/injection, schedule: Q01DX001 (ip), vehicle: saline with Tween-80 100 % of control | dose: 200.0 mg/kg/injection, schedule: Q01DX001 (ip), vehicle: saline with Tween-80 102 % of control | dose: 400.0 mg/kg/injection, schedule: Q01DX001 (ip), vehicle: saline with Tween-80 100 % of control

Cc1ccc(C(=O)CCCCCCCCC(=O)c2ccc(C)cc2)cc1
inactive: [3] 97 % of control | [4] 89 % of control | [5] 89 % of control

NC(=O)c1cc(O)c(O)c(O)c1
inactive: [6] 102 % of control | [7] 102 % of control | [8] 102 % of control

O=[N+]([O-])c1ccc2nc(-c3ccccc3)c(-c3ccccc3)nc2c1
inactive: dose: 100.0 mg/kg/injection, schedule: Q01DX009 (ip), vehicle: Klucel (hydroxypropylcellulose) (HPC) 102 % of control | dose: 100.0 mg/kg/injection, schedule: Q04DX003 (ip), vehicle: Klucel (hydroxypropylcellulose) (HPC) 98 % of control | dose: 200.0 mg/kg/injection, schedule: Q01DX009 (ip), vehicle: Klucel (hydroxypropylcellulose) (HPC) 105 % of control | dose: 200.0 mg/kg/injection, schedule: Q04DX003 (ip), vehicle: Klucel (hydroxypropylcellulose) (HPC) 104 % of control | dose: 400.0 mg/kg/injection, schedule: Q01DX009 (ip), vehicle: Klucel (hydroxypropylcellulose) (HPC) 96 % of control | dose: 400.0 mg/kg/injection, schedule: Q04DX003 (ip), vehicle: Klucel (hydroxypropylcellulose) (HPC) 104 % of control

Cc1ccc(Nc2cc(=O)[nH]c(=O)[nH]2)c(C)c1
inactive: dose: 18.75 mg/kg/injection, schedule: Q01DX001 (ip), vehicle: saline with Tween-80 97 % of control | dose: 37.5 mg/kg/injection, schedule: Q01DX001 (ip), vehicle: saline with Tween-80 90 % of control | dose: 75.0 mg/kg/injection, schedule: Q01DX001 (ip), vehicle: saline with Tween-80 90 % of control

N#CCCN1CCCC1=O
inactive: [6] 103 % of control | [7] 100 % of control | [8] 106 % of control

Nc1cc(Cl)cc2c1-c1ccc(Cl)cc1/C2=N\O
inactive: [9] 100 % of control | dose: 200.0 mg/kg/injection, schedule: Q01DX001 (ip), vehicle: carboxymethylcellulose (CMC) 97 % of control | [10] 97 % of control

CCOC=Nc1ccc(-n2cnc3c(Cl)ncnc32)cc1C
inactive: [9] 91 % of control | [10] 98 % of control

CC(C)CC(CC(C)C)NC(C)COC(=O)C(c1ccccc1)c1ccccc1 (stereo unspecified)
inactive: dose: 75.0 mg/kg/injection, schedule: Q01DX001 (ip), vehicle: saline 98 % of control | dose: 150.0 mg/kg/injection, schedule: Q01DX001 (ip), vehicle: saline 102 % of control | dose: 300.0 mg/kg/injection, schedule: Q01DX001 (ip), vehicle: saline 100 % of control

CC1(C)Cc2c(OC(N)=O)cccc2O1
inactive: dose: 25.0 mg/kg/injection, schedule: Q01DX001 (ip), vehicle: Klucel (hydroxypropylcellulose) (HPC) 102 % of control | dose: 50.0 mg/kg/injection, schedule: Q01DX001 (ip), vehicle: Klucel (hydroxypropylcellulose) (HPC) 98 % of control

CC(C)Oc1ccc(C(=O)NS(=O)(=O)c2ccc(N)cc2)cc1
inactive: [6] 101 % of control | [1] 91 % of control | [7] 101 % of control | [2] 103 % of control | [8] 100 % of control | dose: 400.0 mg/kg/injection, schedule: Q01DX009 (ip), vehicle: saline 100 % of control

Clc1nc2nc(Cl)n(Cl)c2nc1Cl
inactive: [3] 96 % of control | [4] 95 % of control | dose: 100.0 mg/kg/injection, schedule: Q04DX003 (ip), vehicle: saline with Tween-80 98 % of control | [5] 91 % of control | dose: 200.0 mg/kg/injection, schedule: Q04DX003 (ip), vehicle: saline with Tween-80 89 % of control | dose: 400.0 mg/kg/injection, schedule: Q04DX003 (ip), vehicle: saline with Tween-80 96 % of control
